Measured values reported in patent US12138232B2, “Compounds for treating coronavirus infection” (priority 2020, dated 2024).

How the values were obtained:
[1] = based on literature reports; cited from earlier work
[2] = biological target: T1, 3CL protease of SARS-coronavirus 2 (Severe acute respiratory syndrome coronavirus 2, UniProt P0DTD1); test: 3CL protease fluorescent assay based on commercial kit (BPS cat. 79955-1); assay type: biochemical; conditions: for Activity (RFU/minute): mean ± standard deviation, 0 μM: 743.7 ± 20.6
T1 construct: purchased BPS 79955-1
Description: Inhibition of the activity of 3CL protease of SARS-coronavirus 2 (the coronavirus associated with COVID-19) was determined by an assay based on commercial kit (BPS cat. 79955-1). […] The reaction was initiated by addition of 50 μl of 50 μM kit substrate (25 μM final concentration), and then fluorescence was monitored (at 340 nm excitation wavelength, 510 nm emission wavelength) using a CLARIOstar® Plus plate reader (BMG Labtech). The 3CL protease activity was quantified as relative fluorescent units (RFU) per minute.

## CC(C)=CCC(O)C1=CC(=O)c2c(O)ccc(O)c2C1=O (stereo not drawn) [Shikonin, 5,8-dihydroxy-2-(1-hydroxy-4-methylpent-3-en-1-yl)naphthalene-1,4-dione]
[1]
  dosages at which toxicity is not expected: less than 8 grams per day
[2]; 0.1 μM shikonin
  Activity (RFU/minute): 653.8 ± 28.1 RFU/minute
[2]; 1 μM shikonin
  Activity (RFU/minute): 680.1 ± 34.3 RFU/minute
[2]; 10 μM shikonin
  Activity (RFU/minute): 425.0 ± 7.8 RFU/minute
[2]; 100 μM shikonin
  inhibition of 3CL protease: almost complete inhibition
  Activity (RFU/minute): 2.9 ± 18.4 RFU/minute
